Test results taken from ChEMBL document CHEMBL4476879, “MST1 kinase inhibitors and methods of their use” (2013).
The source made the active and inactive calls.

Key:
Type in all cases: functional, organism-based
Mus musculus [1] = assay: Therapeutic anti-inflammatory activity in mouse model of collagen-induced arthritis disease assessed as reduction in cumulative arthritis scores at 10 to 100 mg/kg, po BID for 21 days starting on day 20 after immunization
Mus musculus [2] = assay: Anti-inflammatory activity in mouse model of concanavalin A-induced hepatitis assessed as reduction in TNFalpha level at 10 to 100 mg/kg, po dosed dosed 16 hrs and 1 hr before and 8 hrs after concanavalin A challenge
Rattus norvegicus [3] = assay: Therapeutic anti-inflammatory activity in rat model of collagen-induced arthritis disease assessed as effect on ankle thickness by measuring water displacement at 50 mg/kg, po QD for 21 days starting on day 11 after immunization
Mus musculus [4] = assay: Anti-inflammatory activity in mouse model of concanavalin A-induced hepatitis assessed as reduction in IL6 level at 10 to 100 mg/kg, po dosed dosed 16 hrs and 1 hr before and 8 hrs after concanavalin A challenge
Mus musculus [5] = assay: Anti-inflammatory activity in mouse model of concanavalin A-induced hepatitis assessed as reduction in ALT level at 10 to 100 mg/kg, po dosed dosed 16 hrs and 1 hr before and 8 hrs after concanavalin A challenge
Mus musculus [6] = assay: Therapeutic anti-inflammatory activity in mouse model of experimental autoimmune encephalomyelitis disease assessed as reduction in disease clinical scores at 10 mg/kg, po BID for 14 days starting on day 9 after MOG peptide immunization
Rattus norvegicus [7] = assay: Therapeutic anti-inflammatory activity in rat model of collagen-induced arthritis disease assessed as reduction in cumulative arthritis scores at 10 to 25 mg/kg, po BID for 21 days starting on day 11 after immunization
Mus musculus [8] = assay: Therapeutic anti-inflammatory activity in mouse model of collagen-induced arthritis disease assessed as effect on ankle thickness at 10 to 100 mg/kg, po BID for 21 days starting on day 20 after immunization
Mus musculus [9] = assay: Anti-inflammatory activity in mouse model of concanavalin A-induced hepatitis assessed as reduction in AST level at 10 to 100 mg/kg, po dosed dosed 16 hrs and 1 hr before and 8 hrs after concanavalin A challenge
Mus musculus [10] = assay: Therapeutic anti-inflammatory activity in mouse model of experimental autoimmune encephalomyelitis disease assessed as reduction in disease clinical scores at 30 mg/kg, po BID for 14 days starting on day 9 after MOG peptide immunization
Mus musculus [11] = assay: Prophylactic anti-inflammatory activity in mouse model of experimental autoimmune encephalomyelitis disease assessed as reduction in disease clinical scores at 100 mg/kg, po for 22 days (dosed BID on days-1 to 9 and QD on days 10 to 21) starting on day (-1) before MOG peptide immunization
Mus musculus [12] = assay: Prophylactic anti-inflammatory activity in mouse model of experimental autoimmune encephalomyelitis disease assessed as reduction in disease clinical scores at 10 mg/kg, po BID for 22 days starting on day (-1) before MOG peptide immunization
Rattus norvegicus [13] = assay: Therapeutic anti-inflammatory activity in rat model of experimental autoimmune encephalomyelitis disease assessed as reduction in disease severity clinical scores at 10 to 50 mg/kg, po BID starting on day 9 after MOG peptide immunization
Rattus norvegicus [14] = assay: Therapeutic anti-inflammatory activity in rat model of collagen-induced arthritis disease assessed as effect on ankle thickness by measuring water displacement at 10 to 25 mg/kg, po BID for 21 days starting on day 11 after immunization
Mus musculus [15] = assay: Prophylactic anti-inflammatory activity in mouse model of experimental autoimmune encephalomyelitis disease assessed as reduction in disease clinical scores at 30 mg/kg, po BID for 22 days starting on day (-1) before MOG peptide immunization
Mus musculus [16] = assay: Anti-inflammatory activity in mouse model of concanavalin A-induced hepatitis assessed as effect on IFNgamma level at 10 to 100 mg/kg, po dosed dosed 16 hrs and 1 hr before and 8 hrs after concanavalin A challenge
Mus musculus [17] = assay: Anti-inflammatory activity in mouse model of concanavalin A-induced hepatitis assessed as reduction in MCP1 level at 10 to 100 mg/kg, po dosed dosed 16 hrs and 1 hr before and 8 hrs after concanavalin A challenge
Mus musculus [18] = assay: Therapeutic anti-inflammatory activity in mouse model of experimental autoimmune encephalomyelitis disease assessed as reduction in disease clinical scores at 100 mg/kg, po for 14 days ( dosed BID on days 9 to 13 and QD on day 14 to 23 starting on day 9 after MOG peptide immunization
Rattus norvegicus [19] = assay: Therapeutic anti-inflammatory activity in rat model of collagen-induced arthritis disease assessed as reduction in cumulative arthritis scores at 50 mg/kg, po QD for 21 days starting on day 11 after immunization
Mus musculus [20] = assay: Therapeutic anti-inflammatory activity in mouse model of collagen-induced arthritis disease assessed as effect on ankle thickness at 10 to 30 mg/kg, sc BID for 3 weeks days starting on day 20 after collagen immunization
Mus musculus [21] = assay: Therapeutic anti-inflammatory activity in mouse model of experimental autoimmune encephalomyelitis disease assessed as reduction in disease clinical scores at 3 to 30 mg/kg, po BID for 21 days starting on day 9 after MOG peptide immunization
Mus musculus [22] = assay: Therapeutic anti-inflammatory activity in mouse model of collagen-induced arthritis disease assessed as reduction in cumulative arthritis scores at 10 to 30 mg/kg, sc BID for 3 weeks days starting on day 20 after collagen immunization
Mus musculus [23] = assay: Therapeutic anti-inflammatory activity in mouse model of experimental autoimmune encephalomyelitis disease assessed as reduction in disease clinical scores at 3 to 10 mg/kg, sc BID for 12 days starting on day 9 after MOG peptide immunization
Mus musculus [24] = assay: Therapeutic anti-inflammatory activity in mouse model of collagen-induced arthritis disease assessed as reduction in cumulative arthritis scores at 10 to 50 mg/kg, po BID for 3 weeks days starting on day 20 after collagen immunization
Mus musculus [25] = assay: Therapeutic anti-inflammatory activity in mouse model of collagen-induced arthritis disease assessed as effect on ankle thickness at 10 to 50 mg/kg, po BID for 3 weeks days starting on day 20 after collagen immunization
Mus musculus [26] = assay: Anti-inflammatory activity in mouse model of concanavalin A-induced hepatitis assessed as reduction in ALT level at 1 to 10 mg/kg, po dosed dosed 16 hrs and 1 hr before and 8 hrs after concanavalin A challenge
Rattus norvegicus [27] = assay: Therapeutic anti-inflammatory activity in rat model of experimental autoimmune encephalomyelitis disease assessed as reduction in disease severity clinical scores at 0.3 to 10 mg/kg, po QD starting on day 10 after MOG peptide immunization
Mus musculus [28] = assay: Anti-inflammatory activity in mouse model of concanavalin A-induced hepatitis assessed as reduction in IL6 level at 1 to 10 mg/kg, po dosed dosed 16 hrs and 1 hr before and 8 hrs after concanavalin A challenge
Mus musculus [29] = assay: Anti-inflammatory activity in mouse model of concanavalin A-induced hepatitis assessed as reduction in AST level at 1 to 10 mg/kg, po dosed dosed 16 hrs and 1 hr before and 8 hrs after concanavalin A challenge
Mus musculus [30] = assay: Anti-inflammatory activity in mouse model of concanavalin A-induced hepatitis assessed as reduction in MCP1 level at 1 to 10 mg/kg, po dosed dosed 16 hrs and 1 hr before and 8 hrs after concanavalin A challenge
Mus musculus [31] = assay: Anti-inflammatory activity in mouse model of concanavalin A-induced hepatitis assessed as reduction in TNFalpha level at 1 to 10 mg/kg, po dosed dosed 16 hrs and 1 hr before and 8 hrs after concanavalin A challenge
Mus musculus [32] = assay: Anti-inflammatory activity in mouse model of concanavalin A-induced hepatitis assessed as effect on IFNgamma level at 1 to 10 mg/kg, po dosed dosed 16 hrs and 1 hr before and 8 hrs after concanavalin A challenge

Measured: Activity

CN(C1CC1)S(=O)(=O)c1ccc(-c2cnc(N)c(-c3ccc4c(c3)CCNC4=O)c2)cc1
active: Mus musculus [1] | Mus musculus [2] | Rattus norvegicus [3] | Mus musculus [4] | Mus musculus [5] | Mus musculus [6] | Rattus norvegicus [7] | Mus musculus [8] | Mus musculus [9] | Mus musculus [10] | Mus musculus [11] | Mus musculus [12] | Rattus norvegicus [13] Dose-dependent effect | Rattus norvegicus [14] | Mus musculus [15] | Mus musculus [16] | Mus musculus [17] | Mus musculus [18] | Rattus norvegicus [19]

CN(C1CC1)S(=O)(=O)c1ccc(-c2cnc(N)c(-c3ccc4c(c3)CCNC4=O)n2)cc1
active: Mus musculus [20] | Mus musculus [21] Dose-dependent effect | Mus musculus [22] | Mus musculus [23] Dose-dependent effect | Mus musculus [24] | Mus musculus [25]

N#CC1(c2ccc(-c3cnc(N)c(-c4ccc5c(c4)CCNC5=O)n3)cc2)CC1
active: Mus musculus [26] | Rattus norvegicus [27] | Mus musculus [28] | Mus musculus [29] | Mus musculus [30] | Mus musculus [31] | Mus musculus [32]
